According to PMC11488110 (Theranostics, 2024):

Tests used:
[1] = molecular target: T1, hPPARγ (Homo sapiens, UniProt P37231); assay: In vitro co-transfection (PPRE-luciferase) assay in CV-1 cells, hPPARγ; format: cell-based; conditions: 24 h, read-out: Potency (EC50) hPPARγ
T1 sequence (P37231 1-505): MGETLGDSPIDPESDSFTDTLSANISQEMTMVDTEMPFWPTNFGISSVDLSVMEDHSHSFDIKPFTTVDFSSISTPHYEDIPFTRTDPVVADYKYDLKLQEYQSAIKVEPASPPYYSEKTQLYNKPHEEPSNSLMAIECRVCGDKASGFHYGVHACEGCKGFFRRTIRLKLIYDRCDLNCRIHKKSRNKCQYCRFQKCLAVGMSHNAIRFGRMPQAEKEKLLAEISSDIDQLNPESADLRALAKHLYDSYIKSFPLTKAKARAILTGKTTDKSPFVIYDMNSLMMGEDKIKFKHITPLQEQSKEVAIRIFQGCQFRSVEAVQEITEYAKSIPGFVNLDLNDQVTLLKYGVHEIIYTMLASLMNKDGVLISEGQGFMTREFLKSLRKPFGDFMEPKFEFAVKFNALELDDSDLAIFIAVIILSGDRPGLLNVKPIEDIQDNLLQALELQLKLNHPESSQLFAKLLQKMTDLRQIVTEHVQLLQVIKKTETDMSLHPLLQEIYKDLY

[2] = test system: BV-2 microglial cells; assay: LPS-induced inflammatory responses in BV-2 microglia; format: cell-based, mouse
[3] = molecular target: T2, hPPARα (Homo sapiens, UniProt Q07869); assay: In vitro co-transfection (PPRE-luciferase) assay in CV-1 cells, hPPARα; format: cell-based; conditions: 24 h, read-out: Potency (EC50) hPPARα
T2 sequence (Q07869 1-468): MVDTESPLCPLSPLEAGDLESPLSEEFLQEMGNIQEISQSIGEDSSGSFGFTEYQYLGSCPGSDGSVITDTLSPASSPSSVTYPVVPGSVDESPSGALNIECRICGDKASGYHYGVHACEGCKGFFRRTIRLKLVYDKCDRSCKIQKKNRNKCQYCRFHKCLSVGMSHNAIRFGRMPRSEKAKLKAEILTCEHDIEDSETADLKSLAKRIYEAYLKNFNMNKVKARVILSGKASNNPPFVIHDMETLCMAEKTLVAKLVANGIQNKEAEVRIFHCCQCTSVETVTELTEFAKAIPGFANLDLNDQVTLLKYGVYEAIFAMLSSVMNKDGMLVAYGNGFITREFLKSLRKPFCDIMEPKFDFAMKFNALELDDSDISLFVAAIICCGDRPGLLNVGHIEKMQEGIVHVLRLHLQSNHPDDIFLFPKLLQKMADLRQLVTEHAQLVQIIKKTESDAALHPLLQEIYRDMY

[4] = molecular target: T3, CYP3A4 (Homo sapiens, UniProt P08684); assay: CYP inhibition assay, human liver microsomes; format: in vitro ADME
T3 construct: performed using 0.25 mg/mL human liver microsomes; from tissue; host or cells: human liver microsomes
Procedure: (§1) All incubations were performed in duplicate, and the mean values were used for analysis. Cocktail incubations were carried out using […] probe substrates of CYP1A2, CYP2C9, CYP2C19, CYP2D6, and CYP3A4: phenacetin, tolbutamide, mephenytoin, dextromethorphan and midazolam respectively, followed by tandem mass spectrometry. Briefly, an incubation reaction was performed using 0.25 mg/mL human liver microsomes in a final incubation volume of 100 μL. The incubation medium contained 100 mM phosphate buffer (pH 7.4) and probe substrates. The incubation mixture containing various inhibitors (10 μM) was pre-incubated for 5 min. After pre-incubation, an NADPH-regenerating system was added. After incubation at 37 °C for 15 min, the reaction was stopped by placing the incubation tubes on ice and adding 40 μL of ice-cold acetonitrile. The incubation mixtures were centrifuged at 10,000 g and 4 °C for 5 min. Aliquots of the supernatant were injected onto an LC-MS/MS system. The CYP-mediated activities in the presence of inhibitors were expressed as a percentage of the corresponding control value.
(§2) Ta b l e S2 . CYP inhibition, microsomal stability, and hERG in hibition of 5a .
(§3) CYP inhibitiona Microsomal stabilityb
(§4) ( % of c ont rol ac ti vit y) (% of remaining compound) hERG inhibitionc (IC50, μ M) […]
(§5) aCytochrome P450 (CYP450) enzyme activity was measured by incubating CYP450 enzyme isotype-specific substrates and liver microsomes in the presence of the test compound (10 μM) for 15 min. Data are expressed as percent of CYP enzyme activity relative to that of t he v ehicle-treated control. […]
(§6) a- cThe results of these three assays were obtained through the in vitro ADME/Tox study service of KMEDIhub, a contract research organization (CRO). The reported measurements are the mean of […]

[5] = molecular target: T4, CYP2C9 (Homo sapiens, UniProt P11712); assay: CYP inhibition assay, human liver microsomes; format: in vitro ADME
T4 construct: performed using 0.25 mg/mL human liver microsomes; from tissue; host or cells: human liver microsomes
Procedure: as §1, §2, §3, §4, §5, §6

[6] = molecular target: T5, CYP1A2 (Homo sapiens, UniProt P05177); assay: CYP inhibition assay, human liver microsomes; format: in vitro ADME
T5 construct: performed using 0.25 mg/mL human liver microsomes; from tissue; host or cells: human liver microsomes
T5 sequence (P05177 1-516): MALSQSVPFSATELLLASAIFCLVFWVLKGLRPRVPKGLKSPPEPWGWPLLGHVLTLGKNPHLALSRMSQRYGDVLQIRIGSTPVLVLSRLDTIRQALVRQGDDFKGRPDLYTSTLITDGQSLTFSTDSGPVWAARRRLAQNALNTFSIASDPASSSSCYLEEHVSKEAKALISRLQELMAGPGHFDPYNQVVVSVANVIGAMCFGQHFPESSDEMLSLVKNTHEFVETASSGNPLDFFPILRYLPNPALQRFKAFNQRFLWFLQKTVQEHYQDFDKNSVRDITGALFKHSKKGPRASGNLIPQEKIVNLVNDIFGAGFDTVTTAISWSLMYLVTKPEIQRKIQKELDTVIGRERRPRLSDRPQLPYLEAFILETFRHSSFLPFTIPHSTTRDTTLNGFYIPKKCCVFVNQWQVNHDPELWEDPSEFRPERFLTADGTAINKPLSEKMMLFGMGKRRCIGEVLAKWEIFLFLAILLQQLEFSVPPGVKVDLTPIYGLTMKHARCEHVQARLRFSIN
Procedure: as §1, §2, §3, §4, §5, §6

[7] = molecular target: T6, CYP2C19 (Homo sapiens, UniProt P33261); assay: CYP inhibition assay, human liver microsomes; format: in vitro ADME
T6 construct: performed using 0.25 mg/mL human liver microsomes; from tissue; host or cells: human liver microsomes
Procedure: as §1, §2, §3, §4, §5, §6

[8] = molecular target: T7, CYP2D6 (Homo sapiens, UniProt P10635); assay: CYP inhibition assay, human liver microsomes; format: in vitro ADME
T7 construct: performed using 0.25 mg/mL human liver microsomes; from tissue; host or cells: human liver microsomes
Procedure: as §1, §2, §3, §4, §5, §6

[9] = 10 μM, 15 min, human liver microsomes
[10] = stated for the five CYP subtypes, tested at 10 µM

T4 sequence (P11712 whole entry): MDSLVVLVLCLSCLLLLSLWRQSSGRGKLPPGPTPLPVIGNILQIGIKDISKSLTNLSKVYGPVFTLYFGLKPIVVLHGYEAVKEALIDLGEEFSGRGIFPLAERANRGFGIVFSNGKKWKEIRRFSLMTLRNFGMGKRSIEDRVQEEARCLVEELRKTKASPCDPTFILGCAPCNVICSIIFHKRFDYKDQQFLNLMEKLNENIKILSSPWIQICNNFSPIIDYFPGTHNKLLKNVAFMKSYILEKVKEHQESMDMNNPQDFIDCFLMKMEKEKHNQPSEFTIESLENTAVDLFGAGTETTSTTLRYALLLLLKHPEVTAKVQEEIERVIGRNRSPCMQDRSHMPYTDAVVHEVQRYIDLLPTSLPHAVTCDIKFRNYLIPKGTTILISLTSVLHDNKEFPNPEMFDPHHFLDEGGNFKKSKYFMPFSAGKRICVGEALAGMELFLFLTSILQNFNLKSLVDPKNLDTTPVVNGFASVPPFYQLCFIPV
T7 sequence (P10635 whole entry): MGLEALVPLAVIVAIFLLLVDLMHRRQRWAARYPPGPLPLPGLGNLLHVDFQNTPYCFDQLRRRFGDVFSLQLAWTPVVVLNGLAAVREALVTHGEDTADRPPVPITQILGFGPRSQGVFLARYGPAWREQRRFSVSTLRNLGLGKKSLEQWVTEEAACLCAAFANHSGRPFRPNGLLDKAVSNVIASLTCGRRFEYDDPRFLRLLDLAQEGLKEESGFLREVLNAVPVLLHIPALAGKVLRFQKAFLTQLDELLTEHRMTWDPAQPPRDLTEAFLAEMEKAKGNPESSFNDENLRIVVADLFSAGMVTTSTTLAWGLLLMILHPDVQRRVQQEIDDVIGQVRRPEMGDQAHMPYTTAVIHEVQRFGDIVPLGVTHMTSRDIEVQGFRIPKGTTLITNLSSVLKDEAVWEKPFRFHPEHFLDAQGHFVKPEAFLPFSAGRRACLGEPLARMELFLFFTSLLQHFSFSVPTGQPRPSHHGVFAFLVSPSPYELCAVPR
T6 sequence (P33261 whole entry): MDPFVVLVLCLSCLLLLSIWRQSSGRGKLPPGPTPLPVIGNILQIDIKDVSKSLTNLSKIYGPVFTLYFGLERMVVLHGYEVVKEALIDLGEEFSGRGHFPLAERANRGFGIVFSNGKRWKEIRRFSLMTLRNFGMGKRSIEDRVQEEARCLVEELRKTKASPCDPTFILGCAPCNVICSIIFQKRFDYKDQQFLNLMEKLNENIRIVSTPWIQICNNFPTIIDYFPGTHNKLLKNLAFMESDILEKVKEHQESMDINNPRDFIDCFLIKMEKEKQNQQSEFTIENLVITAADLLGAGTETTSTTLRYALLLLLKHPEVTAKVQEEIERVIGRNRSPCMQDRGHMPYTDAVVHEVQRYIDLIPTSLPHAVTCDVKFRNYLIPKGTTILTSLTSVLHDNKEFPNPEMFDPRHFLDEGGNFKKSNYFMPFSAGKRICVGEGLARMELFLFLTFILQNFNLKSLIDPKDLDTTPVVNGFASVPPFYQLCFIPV
T3 sequence (P08684 whole entry): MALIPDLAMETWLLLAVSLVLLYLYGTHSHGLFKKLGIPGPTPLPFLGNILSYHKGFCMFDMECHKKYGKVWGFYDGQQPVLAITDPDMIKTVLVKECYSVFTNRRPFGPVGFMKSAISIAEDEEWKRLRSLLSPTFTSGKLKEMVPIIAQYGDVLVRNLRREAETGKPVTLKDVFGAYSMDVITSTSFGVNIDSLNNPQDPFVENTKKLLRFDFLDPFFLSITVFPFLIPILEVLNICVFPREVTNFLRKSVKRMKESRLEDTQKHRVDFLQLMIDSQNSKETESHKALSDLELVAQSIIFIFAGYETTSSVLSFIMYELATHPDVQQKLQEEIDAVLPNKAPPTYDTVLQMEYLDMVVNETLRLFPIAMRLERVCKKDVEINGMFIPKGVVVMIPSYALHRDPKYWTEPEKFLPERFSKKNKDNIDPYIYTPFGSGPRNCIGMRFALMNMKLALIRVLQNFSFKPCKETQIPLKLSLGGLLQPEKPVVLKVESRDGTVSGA

Cc1cc(SCc2[se]c(-c3ccc(C(F)(F)F)cc3)nc2C)ccc1OCC(=O)O [Compound 5a, {2-Methyl-4-[4-methyl-2-(4-trifluoromethyl-phenyl)-selenazol-5-yl-methylsulfanyl]-phenoxy}-acetic acid]
EC50 [1]: > 10 µM
LPS-induced mRNA and protein levels of iNOS, TNF-α and IL-6 ([2]; BV-2, LPS 0.2 μg/mL): reduced the LPS-induced increases
LPS-induced NO production (nitrite) ([2]; pretreatment 3 h, LPS 0.2 μg/mL 24 h): suppressed
LPS-induced phosphorylation of NF-κB p65 ([2]; pretreatment 6 h, LPS 1 h): prevented the increase
EC50 [3]: > 10 µM
CYP inhibition 3A4 (% of control activity) [4, 9]: 94.9 % of control activity
IC50 [4, 10]: > 10 µM
CYP inhibition 2C9 (% of control activity) [5, 9]: 63.6 % of control activity
IC50 [5, 10]: > 10 µM
CYP inhibition 1A2 (% of control activity) [6, 9]: 78.1 % of control activity
IC50 [6, 10]: > 10 µM
CYP inhibition 2C19 (% of control activity) [7, 9]: 88.6 % of control activity
IC50 [7, 10]: > 10 µM
CYP inhibition 2D6 (% of control activity) [8, 9]: 92.1 % of control activity
IC50 [8, 10]: > 10 µM
